No end group written: not given here.
What was measured:
cortical neurons = assay: Entry into cultured cortical neurons, LC-MS of the lysate; type: in vitro ADME, mouse; details: 1 mg/dish, 1.0 x 10^7 cells/10-cm dish, 0, 10, 20, 30, 60, 180, 360 min
Experimental: Intracellular amount of GPPGPAG after addition to cultured cortical neurons.
Mouse cortical neurons were seeded at 1.0 x 10^7 cells/10-cm dish. After 3 – 4 days culture, 1 mg/dish GPPGPAG was added. Incubation time was 0, 10,20, 30, 60, 180 and 360 min. After complete washing by PBS, cell lysate was prepared by M-PER solution. The lysate was ultrasonicated with methanol for 60 sec, and centrifuged (12000g) for 10 min at 4℃. Supernatant was dried up and served for […]
(1 picture or pasted object on this page, not shown here)

[1] = Body weight during i.c.v. infusion; type: in vivo, mouse; details: i.c.v. infusion for 28 days
Experimental: FIGURE 4 Effect of i.c.v. infusion of GPPGPAG on object recognition memory deficits in 5XFAD mice (A) GPPGPAG or vehicle solution (artificial cerebrospinal fluid; ACSF) was continuously administered to the lateral ventricle for 28 days in mice (male and female, 24–27 weeks old). The dose of GPPGPAG was set as 10 nM in CSF. An object recognition test was carried out with a 3 h interval time. The preferential indices of the training and test sessions are shown. *p < 0.05 vs. vehicle-treated 5XFAD mice, repeated measures two-way ANOVA with post hoc Bonferroni’s test. mean ± standard error. Wild-type (male, n = 5), vehicle-treated 5XFAD mice (male, n = 2; female, n = 2), GPPGPAG-infused 5XFAD mice (male, n = 2; female, n = 3). (B) Locomotion was evaluated by open field test. Distance moved and duration with immobility were shown. mean ± standard error (C) Changed values of body weight of mice during whole experimental period are shown.
P re fe re n tia l in d e x (% ) […]
Effect of i.c.v. infusion of GPPGPAG on object recognition memory deficits in 5XFAD mice
(A) GPPGPAG or vehicle solution (artificial cerebrospinal fluid; ACSF) was continuously administered to the lateral ventricle for 28 days in mice (females, 5 - 7 months old). The dose of GPPGPAG was set as 10 nM in ACSF. An object recognition test was carried out with a 24 h interval time. […] (B) Locomotion was evaluated by open field test. […]

[2] = Stability in lysate of mouse cerebral cortex; type: in vitro ADME
Experimental: For intraventricular administration, GPPGPAG was dissolved in artificial cerebrospinal fluid (ACSF; 130 mM NaCl, 24 mM NaHCO3, 3.5 mM KCl, 1.3 mM Na2HPO4, 2 mM CaCl2, 2 mM MgCl2 6H2O, and 10 mM glucose at pH 7.4) for use. GPPGPAG or ACSF was continuously injected for 28 days into the left ventricle (bregma: −0.2 mm, lateral: 1.0 mm, depth: −3.0 mm) using Alzet Osmotic Pump (1004, DURECT Corporation, CA, United States) and ALZET Brain Infusion Kit 3 (DURECT Corporation). Based on the amount of CSF produced which was 18 μL/h and the pump flow rate of 0.11 μL/h, the peptide in the pump was estimated to be diluted 164 times in the CSF to reach a final concentration 10 nM which was the effective dose in the cultured neuron experiments. Therefore 1.64 µM GPPGPAG was loaded into the pump. Stability of GPPGPAG in saline, mouse plasma and mouse cerebral cortex was confirmed by LC-MS quantification. GPPGPAG was mixed with saline or plasma at 5 μg/ml concentration. Otherwise, GPPGPAG was mixed with cortical lysate at 6.5 μg/g of cortex. After incubation at 37°C for 0, 10, 60, and 180 min, samples were dried up and served to LC-MS. Areas of MS peaks of GPPGPAG were quantified. […]
Stability of GPPGPAG in biological fluids.
(A) GPPGPAG was mixed with saline at 5 μg/ml concentration. (B) GPPGPAG was mixed with mouse plasma at 5 μg/ml concentration. […]

GPPGPAG [GPPGPAG]
entry into the neurons (intracellular amount) (cortical neurons): detected from 10 min after treatment and gradually increased up to 360 min afterward | body weight ([1]; 5XFAD mice, 10 nM in CSF): not significantly changed | body weight ([1]; female 5XFAD mice, 10 nM, separately performed experiment): no significant difference | stability, amount remaining (MS peak area) ([2]; fresh lysate of mouse cerebral cortex, 6.5 μg/g of cortex, 37°C, 0, 10, 60, 180 min, LC-MS, n = 1): declined at 60 min after the incubation | time retained in the brain after entering ([2]; inferred from stability in plasma and cortical lysate): ≤ 10 min

From article PMC8160438, “A Novel Heptapeptide, GPPGPAG Transfers to the Brain, and Ameliorates Memory Dysfunction and Dendritic Atrophy in Alzheimer’s Disease Model Mice” (Frontiers in Pharmacology, 2021)
